How the values were obtained:
[1] = test system: E. coli serotype O2:H6 (APEC); assay: Host range spot assay; assay type: cell-based, Escherichia coli; conditions: E. coli serotype O2:H6, scale 0-3
Experimental: (§1) The host range of each bacteriophage type was determined by performing spot assays using each of the ten distinct APEC serotypes mentioned above. Spot assays were performed as known in the art (Barrow et al., 1998, Clinical and Diagnostic Laboratory Immunology, 5 (3), 294-298). 100 μL aliquots of log-phase bacterial cultures were combined with 67.5 μL 1M CaCl2) and 4 mL LB overlay, mixed briefly, and poured over LB agar plates. Once the overlay had solidified, 5 μL aliquots of individual phage types were applied (i.e., spotted) onto the plates, and plates were incubated at 37° C. overnight. Plates were assessed for clearings the following day and the degree of lysis was measured using a four-point scale in which 0 indicated no lysis, 1.0 indicated some lysis, 2.0 indicated moderate lysis, and 3 indicated complete lysis. Spot assays were conducted in triplicate for each phage and APEC strain.

[2] = test system: E. coli serotype O78:H9 (APEC); assay: Host range spot assay; assay type: cell-based, Escherichia coli; parameters: key: — indicates no lysis at all; 0.1-1.0 indicates that the phage is semi-lytic; 1.1-2.0 indicates moderate lysis of bacteria; 2.1-3.0 indicates complete lysis of bacteria and formation of a transparent, circular clearing on the bacterial lawn; conditions: E. coli serotype O78:H9, scale 0-3
Experimental: as §1

[3] = test system: E. coli serotype O78:H51 (APEC); assay: Host range spot assay; assay type: cell-based, Escherichia coli; parameters: key: — indicates no lysis at all; 0.1-1.0 indicates that the phage is semi-lytic; 1.1-2.0 indicates moderate lysis of bacteria; 2.1-3.0 indicates complete lysis of bacteria and formation of a transparent, circular clearing on the bacterial lawn; conditions: E. coli serotype O78:H51, scale 0-3
Experimental: as §1

[4] = test system: E. coli serotype O6:H31 (APEC); assay: Host range spot assay; assay type: cell-based, Escherichia coli; parameters: key: — indicates no lysis at all; 0.1-1.0 indicates that the phage is semi-lytic; 1.1-2.0 indicates moderate lysis of bacteria; 2.1-3.0 indicates complete lysis of bacteria and formation of a transparent, circular clearing on the bacterial lawn; conditions: E. coli serotype O6:H31, scale 0-3
Experimental: as §1

[5] = test system: E. coli serotype O1:H23 (APEC); assay: Host range spot assay; assay type: cell-based, Escherichia coli; parameters: key: — indicates no lysis at all; 0.1-1.0 indicates that the phage is semi-lytic; 1.1-2.0 indicates moderate lysis of bacteria; 2.1-3.0 indicates complete lysis of bacteria and formation of a transparent, circular clearing on the bacterial lawn; conditions: E. coli serotype O1:H23, scale 0-3
Experimental: as §1

[6] = test system: E. coli serotype O5 (APEC); assay: Host range spot assay; assay type: cell-based, Escherichia coli; parameters: key: — indicates no lysis at all; 0.1-1.0 indicates that the phage is semi-lytic; 1.1-2.0 indicates moderate lysis of bacteria; 2.1-3.0 indicates complete lysis of bacteria and formation of a transparent, circular clearing on the bacterial lawn; conditions: E. coli serotype O5, scale 0-3
Experimental: as §1

[7] = test system: E. coli serotype O2 (APEC); assay: Host range spot assay; assay type: cell-based, Escherichia coli; parameters: key: — indicates no lysis at all; 0.1-1.0 indicates that the phage is semi-lytic; 1.1-2.0 indicates moderate lysis of bacteria; 2.1-3.0 indicates complete lysis of bacteria and formation of a transparent, circular clearing on the bacterial lawn; conditions: E. coli serotype O2, scale 0-3
Experimental: as §1

[8] = test system: E. coli serotype O78 (APEC); assay: Host range spot assay; assay type: cell-based, Escherichia coli; parameters: key: — indicates no lysis at all; 0.1-1.0 indicates that the phage is semi-lytic; 1.1-2.0 indicates moderate lysis of bacteria; 2.1-3.0 indicates complete lysis of bacteria and formation of a transparent, circular clearing on the bacterial lawn; conditions: E. coli serotype O78, scale 0-3
Experimental: as §1

[9] = test system: E. coli serotype O2:H4 (APEC); assay: Host range spot assay; assay type: cell-based, Escherichia coli; parameters: key: — indicates no lysis at all; 0.1-1.0 indicates that the phage is semi-lytic; 1.1-2.0 indicates moderate lysis of bacteria; 2.1-3.0 indicates complete lysis of bacteria and formation of a transparent, circular clearing on the bacterial lawn; conditions: E. coli serotype O2:H4, scale 0-3
Experimental: as §1

[10] = test system: E. coli serotype O1:H7 (APEC); assay: Host range spot assay; assay type: cell-based, Escherichia coli; parameters: key: — indicates no lysis at all; 0.1-1.0 indicates that the phage is semi-lytic; 1.1-2.0 indicates moderate lysis of bacteria; 2.1-3.0 indicates complete lysis of bacteria and formation of a transparent, circular clearing on the bacterial lawn; conditions: E. coli serotype O1:H7, scale 0-3
Experimental: as §1

ten APEC strains = assay: Host range (lytic spectrum) over all ten APEC strains, spot assays; assay type: cell-based, Escherichia coli; conditions: for number of different APEC strains lysed: of ten APEC strains; for degree of lysis against the APEC strains lysed: over the strains that the phage lyses, scale 0-3
Experimental: as §1

[11] = Phage release from microcapsules in SIF after SGF; assay type: physicochemical; conditions: encapsulated phage; for phages released from their microcapsules: 1 hour SGF then 1 hour in SIF; for concentration of released phages: 1 hour SGF then 1 hour of incubation in SIF
Experimental: The extent to which phages were released from microcapsules in the intestinal environment was investigated by incubating encapsulated phages first in SGF and then in SIF. 0.5 g of microencapsulated phages (microcapsules) was added to 4.5 mL SGF in duplicate tube sets and incubated at 41° C. for 1 hour with shaking. SGF was then carefully removed via pipetting and microcapsules were combined with either 4.5 mL of SIF or 4.5 mL 1×PBS and incubated at 41° C. with shaking. Aliquots (100 μL) were collected from each sample at 1, 2, and 3 hours following exposure to SIF. The concentrations of released phages in these aliquots were determined using standard plaque assays with phages' respective host APEC serotypes. The experiment was conducted in triplicate with each phage type.

Substance | degree of lysis [1] | degree of lysis [2] | degree of lysis [3] | degree of lysis [4] | degree of lysis [5] | degree of lysis [6] | degree of lysis [7] | degree of lysis [8] | degree of lysis [9] | degree of lysis [10] | number of different APEC strains lysed (ten APEC strains) | phages released from their microcapsules [11] | concentration of released phages [11] | degree of lysis against the APEC strains lysed (ten APEC strains)
Escherichia phage vB_Eco_AHC | 2.0 | — | 1.0 | 2.7 | 1.0 | 1.7 | 3.0 | 1.7 | — | — | six and at least two | 95.8% | 7.99 log10 PFU/mL | 
Escherichia phage vB_Eco_AHP | 2.7 | — | — | 3.0 | 3.0 | — | — | — | — | 3.0 | four and at least two | 97.4% | 9.14 log10 PFU/mL | 2.7-3.0
Escherichia phage vB_Eco_AKA | 1.7 | — | 1.0 | 3.0 | 1.0 | 1.7 | 2.7 | 1.3 | — | — | six and at least two | 94.4% | 7.99 log10 PFU/mL | 
Escherichia phage vB_Eco_MIA | 2.3 | — | 1.0 | 2.7 | 1.0 | 1.7 | 3.0 | 2.0 | — | — | six and at least two | 94.7% | 8.05 log10 PFU/mL | 
Escherichia phage vB_Eco_MP_1 [MP1] | 2.7 | — | — | — | — | — | — | — | 2.7 | — | two and at least two | 96.5% | 8.94 log10 PFU/mL | 2.7
Escherichia phage vB_Eco_MP_2 [MP2] | 3.0 | — | — | — | — | — | — | — | 3.0 | — | two and at least two | 95.4% | 8.88 log10 PFU/mL | 3.0
